Assay results as given in patent US20140140962A1, “VIRUSES MODIFIED WITH UNNATURAL MOIETIES AND METHODS OF USE THEREOF” (priority 2011, published 2014).

Columns and labels:
HEK 293 cells = assay: Plaque forming assay (infectivity); assay type: cell-based; conditions: inferred from plaque assays, even at high concentration
Protocol: Dulbecco's modified Eagle's medium (DMEM), RPMI 1640, penicillin/streptomycin and 0.5% trypsin-EDTA were purchased from GIBCO (Grand Island, N.Y.). RPMI 1640 minus folic acid was obtained from Sigma. Fetal calf serum (FCS) and bovine calf serum (BCS) was purchased from HyClone (Logan, Utah). 293 cells were maintained in DMEM supplemented with 10% BCS, 2 mM glutamine, 100 U/mL penicillin, 100 μg/mL streptomycin. 4T1 cells (ATCC) were maintained in RPMI 1640 medium containing 10% FCS, 2 mM L-glutamine, 100 U/mL penicillin, and 100 μg/mL streptomycin. For 4T1 cells grown without folate, RPMI 1640 minus folic acid was supplemented with 10% FCS, 0.3 mg/mL L-glutamine, 2 mg/mL sodium bicarbonate, 100 U/mL penicillin, 100 μg/mL streptomycin. All cells were maintained in 100×20 mm tissue culture dishes obtained from BD biosciences (Franklin Lakes, N.J.) at 37° C. and 5% CO2. HEK 293 cells in […] culture plates were infected with 400 μL of azide labeled virus particles at concentrations of 10^3 particles/mL. The plates were overlaid with complete media containing 2.8% bactoagar and 10% BCS. […] The plaques were counted within a day after the final overlay.
HEK 293 cells cultivated in 6 mL culture plates were infected with 400 μL of azide labeled virus particles at concentrations of 10^3 particles/ml. […] The plaques were counted within a day after the final overlay.

[1] = system: cancer stem cell related genes (Oct4, Sox2, Nanog, and c-Myc); conditions: 3 unrelated invasive colon cancer cell lines; cited from earlier work
[2] = system: drug resistant cancer cell lines; conditions: cited from earlier work

With `[N-]=[N+]=NCC[C@H](N)C(=O)O` [Aha, Azidohomoalanine] as the molecule, how does the “toxicity to the cells” value (HEK 293 cells) read?
Its value is “not toxic to the cells”.

With `CC(=O)O[C@@]12CO[C@@H]1C[C@H](O)[C@@]1(C)C(=O)[C@H](OC(=O)C3CC3)C3=C(C)[C@@H](OC(=O)[C@H](O)[C@H](C=C(C)C)NC(=O)OC(C)(C)C)C[C@@](O)([C@@H](OC(=O)c4ccccc4)[C@H]21)C3(C)C` [SB-T-1214] as the molecule, how does the “inhibition of cancer stem cell related genes” value [1] read?
The value was “substantial inhibition”.

What about the “cytotoxicity against drug resistant cancer cell lines” value [2] of the same molecule?
The value was “significantly improved cytotoxicity”.
